This is an account of results in ChEMBL document CHEMBL1201862, “PubChem BioAssay data set” (2004).

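Protocol summary: plate cells (96-well), add compound at 5 concentrations, incubate 48 h, interpolate endpoints linearly. GI50 = concentration required for 50% inhibition of growth.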 Calls of active or inactive are those of the source. No stated cut-off is given here; in the data, active = GI50 up to about 1.1 µM and inactive = higher.

Some test systems named below: XF498; DMS-273; DMS-114; LXFL 529; SNB-78; RXF 631; HOP-18; DLD-1; M19-MEL.
Holding throughout (test): growth of human tumour cells (NCI), 48 h

Take `CCc1ccccc1NC(=O)C(=O)C(C(=O)c1ccc(OC)cc1)c1ccc(OC)cc1` (stereo unspecified): the GI50 with XF498, in the assay on DMS-273, in the assay on DMS-114, in the assay with LXFL 529, with SNB-78 and in the assay on RXF 631 was > 100 µM (inactive) each time. Further, the GI50 with HOP-18 and with DLD-1 was > 100 µM (inactive) each time.

As for `Nc1nc2c(ncn2C2OC(CO)C(O)C2O)c(=O)o1` (stereo unspecified), the GI50 was > 100 µM (inactive) in the assay with XF498; > 100 µM (inactive) with M19-MEL; 22.5 µM (inactive) in the assay with DMS-273; 67.3 µM (inactive) with DMS-114; > 100 µM (inactive) with LXFL 529; > 100 µM (inactive) with SNB-78. The GI50 was > 100 µM (inactive) in the assay with RXF 631, > 100 µM (inactive) with HOP-18 and > 89.1 µM (inactive) in the assay on DLD-1.

With `Cc1nc(Nc2ccc(Cl)cc2)sc1C(=O)NNC(=S)NN`, the GI50 in the assay with XF498 was 21.2 µM (inactive); in the assay on M19-MEL, 22.3 µM (inactive); in the assay with DMS-273 it was 18.6 µM (inactive); in the assay with DMS-114 it was 17.5 µM (inactive); in the assay on LXFL 529 it was 20 µM (inactive); with SNB-78, 19.5 µM (inactive). Also, the GI50 in the assay on RXF 631 is 19.5 µM (inactive); in the assay on HOP-18, 18.3 µM (inactive); in the assay on DLD-1 it was 16.6 µM (inactive).

Regarding `Cc1ccc(C)c(NC(=O)CC/C(=N\NC(=O)C(N)=O)C(C)C(=O)c2ccc(O)cc2)c1` (stereo unspecified), the GI50 with M19-MEL, with DMS-114, in the assay with LXFL 529, with SNB-78, in the assay with RXF 631 and in the assay with HOP-18 was > 100 µM (inactive) throughout. Further, in the assay with DLD-1, the GI50 is > 100 µM (inactive).

`COc1ccc2c(c1)[n+]([O-])c(C(=O)C/C(=N/NC(=O)C[N+](C)(C)C)C(=O)Nc1cccc(C)c1C)c(C)[n+]2[O-]`: the GI50 in the assay on M19-MEL, in the assay with DMS-273, in the assay on DMS-114, with LXFL 529, with SNB-78 and in the assay on RXF 631 was > 100 µM (inactive) throughout. For the same molecule, the GI50 in the assay on HOP-18 and with DLD-1 was > 100 µM (inactive) in each case.

Regarding `CC(=O)OC[C@]1(O)CC[C@@]23CC1C[C@@H]2CCC1C(C)(C)CCC[C@@]13C` (stereo partly specified), the GI50 in the assay with XF498 is 14.1 µM (inactive); in the assay with M19-MEL it was 16 µM (inactive); in the assay on DMS-273, 3.65 µM (inactive); in the assay on DMS-114, 11.2 µM (inactive); with LXFL 529, 11.2 µM (inactive); in the assay with SNB-78, 16.1 µM (inactive). For the same molecule, the values for the GI50 in the assay with RXF 631 and in the assay with DLD-1 were 14.2 µM (inactive) and 15.3 µM (inactive), respectively.

On to `CCCCCCCCCCCCCCCCCC[N+](C)(C)Cc1ccc(C[N+](C)(C)CCCCCCCCCCCCCCCCCC)cc1`, for which the GI50 is 16.9 µM (inactive) in the assay on M19-MEL; 16.1 µM (inactive) with DMS-273; 9.46 µM (inactive) in the assay on DMS-114; 2.51 µM (inactive) in the assay on LXFL 529; 18.8 µM (inactive) in the assay with SNB-78; 20.9 µM (inactive) in the assay on RXF 631. Also, the GI50 is 13 µM (inactive) with HOP-18 and 22.1 µM (inactive) in the assay on DLD-1.

As to `CCCCCCCCCCCCC(O)C1CCC(C(O)CCCCC(O)CCCCCC2CC(CC(C)=O)C(=O)O2)O1` (stereo unspecified), the GI50 in the assay with XF498 is 1.82 µM (inactive); in the assay on M19-MEL it was 2.45 µM (inactive); in the assay on DMS-273 it was 2.21 µM (inactive); with DMS-114, < 0.01 µM (active); in the assay with LXFL 529, 2.81 µM (inactive); in the assay with SNB-78, 12.5 µM (inactive). Also, the GI50 with RXF 631 was 3.17 µM (inactive); in the assay on HOP-18 it was 11.3 µM (inactive); with DLD-1, 6.21 µM (inactive).
